# From a melting point compilation (Tetko et al.)
row,melting point [°C],Compound
1,70 to 72,c1cc(-c2csnn2)ccc1OCC1CO1 (stereo not drawn)
2,45.5,C#CC(C)OC(=O)Nc1cccc(Cl)c1 (stereo not drawn)
3,205,O=C1c2ccccc2-c2ccc(O)cc21
4,87 to 90,CCOC(=O)c1cnc2c(c(C)nn2C)c1Cl
5,145 to 147,CCC1CC(OC(=O)c2ccc([N+](=O)[O-])cc2)CC(C)(C)N1O (stereo not drawn)
6,56.5,Cc1cc(O)cc(Br)c1
7,154,O=C(O)Cc1csc2ccc(Cl)cc12
8,95,COc1cc(C(=O)Oc2ccc(/C=C/C(=O)c3ccccc3)cc2)cc(OC)c1OC
9,76 to 77,CCOC(=O)C=Cc1ccccc1N
10,68,O=S(=O)(Cl)c1cccc2ccccc12
11,142,O=C(Nc1ccccc1SSc1ccccc1NC(=O)c1ccccc1)c1ccccc1
12,60,Cc1ccccc1OC(=O)Oc1ccccc1C
13,138,CN(C)C(=O)NC1CCCCCCC1
14,39 to 42,N#CSCc1c(Cl)cccc1Cl
15,133 to 137,N[C@@H](c1ccccc1)c1c(O)ccc2ccccc12
16,165 to 167,CN(C)c1ccc(CNC2=CC(=O)c3ccccc3C2=O)cc1
17,152 to 156,N#Cc1cc(Br)cc(Br)c1N
18,95,O=C(Nc1ccc(Br)cc1Br)C(F)(F)C(F)(F)C(F)(F)C(F)(F)C(F)(F)C(F)(F)C(F)(F)C(F)(F)F
19,52,Cc1cc2ccccc2s1
20,-8,C=C1N(C)c2ccccc2C1(C)C
21,132,COc1ccc(N=[N+]([O-])c2ccc(OC)cc2)cc1
22,60 to 64,CCCCOc1ccc(N)cc1[N+](=O)[O-]
23,270,CN1CCN(c2ccc(C(=O)O)cc2)CC1
24,179,CCOC(=O)C1=NN(c2ccccc2)C(=O)C1CC1C(=O)N(c2ccccc2)N=C1C(=O)OCC (stereo not drawn)
25,194 to 196,O=[N+]([O-])c1cc([N+](=O)[O-])c(C(Br)=Cc2ccccc2)cc1/C=C\c1ccccc1
26,107 to 108,CCCC1C2C(=O)N(c3ccccc3)C(=O)C2ON1c1ccccc1 (stereo not drawn)

row,melting point [°C],Compound
1,304 to 305,Oc1n[nH]c2nc3ccccc3nc12
2,45,O=C(OCCO)c1ccccc1
3,269 to 270,O=C(O)/C=C/c1cccc2c(Br)cccc12
4,297,Cn1ncc2c(NCCN)ncnc21
5,153,CC(C)(C)C(O)C(=Cc1ccc(Cl)cc1)n1cncn1 (stereo not drawn)
6,128,Cc1cc(=O)n(-c2ccccc2)[nH]1
7,60 to 62,COc1ccc(C(=O)C(C#N)=C(SC)SC)cc1
8,-50,ClC(COCC(Cl)C(Cl)(Cl)Cl)C(Cl)(Cl)Cl (stereo not drawn)
9,124 to 126,COC(=O)c1cc(N)cc(O)c1
10,198,O=C(O)c1ncc[nH]1
11,274 to 277,Oc1cc(C(F)(F)F)nc2ccc(C(F)(F)F)cc12
12,198 to 201,ON=Cc1cc(Br)c(O)c(Br)c1
13,206,Brc1cc(Br)c(Oc2c(Br)cc(Br)c(Br)c2Br)c(Br)c1Br
14,46 to 48,Nc1ccc(CN2CCCC2)cc1
15,162,Cn1c(=O)c2c(ncn2CC(O)CO)n(C)c1=O (stereo not drawn)
16,110,CCSc1nnc(CCn2c(C)nc3ccccc32)n1-c1ccccc1
17,301,OC1C2CC3CC(C2)CC1C3 (stereo not drawn)
18,91,CC1=C(C)CC(Cl)(Cl)C(=O)C(Cl)(Cl)C1
19,126 to 130,CON=C(C(=O)Sc1nc2ccccc2s1)c1csc(N)n1
20,42,Cc1c(F)c(F)c(CBr)c(F)c1F
21,300,N#CC1=C(N)Oc2c(Br)cc(Br)cc2C1C(C#N)C#N (stereo not drawn)
22,100,OCc1cc(O)ccc1O
23,81 to 85,Nn1nnc2ccccc21
24,99,COc1cc(F)c(C=O)cc1OC
25,160,c1ccc(CNc2ccccc2-n2c(-c3ccccc3)nc3ccccc32)cc1
26,244 to 246,S=c1[nH]ccn1-c1ccc(Br)cc1

row,melting point [°C],Compound
1,186 to 188,Cc1ccc(NC(N)=S)cc1
2,231,O=S(=O)(O)CCCN1CCN(CCO)CC1
3,98 to 100,CCCCc1nc(C=O)c(Cl)[nH]1
4,149,O=C(Oc1ccc(Cl)cc1)c1ccc(Oc2ccc(C(=O)Oc3ccc(Cl)cc3)cc2)cc1
5,163,COc1cc(OC)nc(Sc2cccc3c2C(=O)OC3C)n1 (stereo not drawn)
6,53 to 59,COC(=O)c1ccc(C(=O)Cl)cc1
7,217 to 218,C/C(=N\CC(O)CO)c1c(O)c2ccccc2n(-c2ccccc2)c1=O (stereo not drawn)
8,135,O=C(c1ccc(Cl)cc1)c1noc(-c2ccc3ccccc3c2)c1S(=O)(=O)c1ccccc1
9,113 to 115,CC(C)Nc1ccc(C#N)cc1[N+](=O)[O-]
10,212 to 215,O=C(Nc1ccccc1)c1cccc(S(=O)(=O)Nc2ccccc2)c1
11,41,CCCCCCCCCCCCOC(=O)CCSCCC(=O)OCCCCCCCCCCCC
12,116 to 117,NCc1ccc(-c2ccsc2)cc1
13,49 to 52,N#CC1(c2ccc(F)cc2Cl)CCCC1
14,235 to 238,Nc1c(Br)cc(Br)c(F)c1C(=O)O
15,45,Fc1ccc2[nH]ccc2c1
16,-30,N=C(c1ccccc1)c1ccccc1
17,39,C1COCCOCCOCCOCCOCCO1
18,217,O=C(NCCc1cc([N+](=O)[O-])c(CCNC(=O)c2ccccc2)c([N+](=O)[O-])c1)c1ccccc1
19,106 to 107,O=S(=O)(Cl)c1ccc(-c2cc(C(F)(F)F)on2)s1
20,178 to 179,O=C(O)C=Cc1ccc(OC(F)(F)F)cc1
21,< 25,CCN(CC)CCOCc1cc(Br)cc(Br)c1OC
22,82 to 83,c1ccc(-c2nsc(N3CCCNCC3)n2)cc1
23,77 to 78,O=[N+]([O-])c1ccc(Cl)c(CO)c1
24,40 to 42,OCCCC(Cl)(Cl)CO
25,178,CCOC(=O)c1[nH]c2cc3[nH]c(C(=O)OCC)c(OC(C)=O)c3cc2c1OC(C)=O

row,Compound,melting point [°C]
1,CC1CC(C)C(=O)C(C(O)CC2CC(=O)NC(=O)C2)C1 (stereo not drawn),119
2,O=C(O)C(O)(c1ccccc1Cl)c1ccccc1Cl,162
3,O=C(O)c1cc(Oc2ccc(C(F)(F)F)cc2Cl)ccc1[N+](=O)[O-],155
4,NCCN(CCN)N(O)N=O,98 to 106
5,COc1cc2c(c(O)c1OC)CNCC2,188
6,Nc1c(Br)cc(Br)cc1C(=O)c1ccccc1,98
7,Brc1c(Br)c(Br)c(Br)c(Br)c1Br,326
8,CCC1C(C)=NN=C(c2ccc(OC)c(OC)c2)c2cc(OC)c(OC)cc21 (stereo not drawn),156
9,CCOC(=O)CCN(Cc1ccccc1)SN(C)C(=O)ON=C(C)SC,47
10,CC12CCC(O)C=C1CCC1C2CCC2(C)C(c3ccc(=O)oc3)CCC12O (stereo not drawn),235
11,Clc1ccc2c(N3CCNCC3)ccnc2c1,113 to 116
